# Results taken from patent US20130203830A1, “Compounds for Prevention of Cell Injury” (SULFATEQ B.V., priority 2010, published 2013).
# Entries after “also recorded” stand apart in the source; their conditions may differ.
# Tests used:
# [1] = system: CBS enzyme isolated from DDT-1 cells; assay: Activity of isolated CBS enzyme (H2S production); assay type: biochemical, hamster; settings: both at 37° C. and 3° C.
# Procedure: To examine the potential of serotonin to act as a cofactor or allosteric activator of CBS, the enzyme was isolated from DDT-1 cells. In brief, DDT-1 cells were lyzed by a non-denaturing buffer. CBS antibody (1 μg/ml) was diluted in coating solution and 100 μl of it was added to each well of a microplate. The plates were left at 4° C. over night. The wells were washed with PBS three times for 2 min and 10 μg/ml of the protein was added to each well and the microplate was left at 4° C. for another 24 hr and later washed three times with PBS. The substrates cysteine and homocysteine at the concentration of 10 μmol each were mixed and 100 μl was added to each well in the absence or presence of PLP (pyridoxal-5-phosphate) or serotonin (30 nmol) in PBS.
# SMAC cells [2] = assay: Survival of SMAC cells after hypothermia (MTS assay / cell counting); assay type: cell-based, rat; settings: SMAC cells, 24 h at 3° C., substance added 15 min before hypothermia
# Procedure: Cell lines used included NRK (normal rat kidney cells), DDT-1 (hamster ductus deferens muscle cells) and A7R5 (rat vascular smooth muscle cells) cultured in DMEM (Gibco, 41966, UK) and SMAC (rat smooth muscle aortic cells) and THMC (transformed human mesangial cell) cultured in DMEM/F12 (Gibco, E12-719F). All media were supplied with 10% (vol/vol) fetal calf serum and 1% penicillin-streptomycin and cultured at 37° C. in 5% CO2 in 25 cm^2 or 75 cm^2 flasks. For hypothermia experiments, cells were plated in 6 or 96 wells plates and grown to confluence. Thereupon, cells were placed at 3° C. for up to 24 hours. Cell survival was measured by counting of trypan blue stained cells or MTS assay, which measures the number of viable cells. For the latter, 20 μl of MTS solution was added to each well and cells were subsequently placed in the incubator at 37° C. in 5% CO2 for 3 hr before assessing the cell survival by measuring absorption using a microplate reader at 490 nm.
# MTS assay was performed to investigate cell survival after blocking serotonin transporter and hypothermic treatment.
# SMAC cells [3] = assay: Caspase 3/7 assay in hypothermic SMAC cells; assay type: cell-based, rat; settings: serotonin 5 nmol/L
# [4] = system: Cystathionine-β-synthase (CBS); assay: CBS expression in SMAC cells (western blot); assay type: cell-based, rat; settings: serotonin 1.3 μM
# Procedure: To investigate the potential of serotonin in upregulating CBS expression in cells, SMAC cells were cultured in a 6 well plate one day before serotonin treatment. After reaching confluence, cells were incubated with 1.3 μM serotonin in SMAC cell complete medium. Control wells only contained the medium. At every time point (5, 10, min), cells were washed with PBS, lysed using RIPA buffer and western blotted to study the change in CBS expression level.
# To investigate the role of Cystathione beta-synthase activity in the protective effect of serotonin the expression of CBS was reduced by applying a predesigned siRNA (sc-60336, Santa Cruz, USA) and compared to a silencer negative control (Ambion, AM4644, Huntingdon, UK). DDT-1 and SMAC cells at 60-80% confluence were seeded in 96 or 6 well plates in antibiotic-free normal growth medium supplemented with FCS. […] The protein concentration was measured by Bradford assay in all the samples. […] Proteins were transferred to a nitrocellulose membrane and detected by West Pico Chemiluminescent Substrate (supersignal), photographed and analyzed with genetool software (version 3.08, SynGene, England). […]
# SMAC cells [5] = assay: H2S content of SMAC cell homogenates (methylene blue method); assay type: cell-based, rat; settings: hypothermic SMAC cells 24 h, 3° C., pretreatment 15 min, 1.3 μM
# Procedure: Methylene blue method for H2S detection was applied to quantitatively measure the H2S production. Cells were washed with PBS, scraped and centrifuged for 60 sec at 1000 rpm. After removal of the supernatant, zinc acetate 1% in water (200 μl) was added to the cell sediments and the cells were disrupted by small glass beads and vortexed for 20 seconds. Diamine-ferric solution was prepared by mixing 100 μl of a 400 mg N,N-dimethyl-p-phenylenediamine dihydrochloride dissolved in 10 ml 6M HCl and 100 μl of 600 mg ferric chloride in 10 ml 6M HCl. Two hundred μl of this mixture was added to the cell suspension and after an incubation time of 30 min at 37° C. and centrifugation, the amount of methylene blue formed in the supernatant was measured at a wavelength of 670 nm. To measure H2S content of supernatant, the same procedure was repeated for the cell free medium of cells incubated at both 37° C. and 3° C. Blanks were made following the same procedure without cells or using fresh medium. The concentration of H2S was calculated by extrapolation using a standard curve obtained from different concentrations of Methylene blue and spectrophotometric measurement at a wavelength of 670 nm. The amount of H2S present was calculated on the basis that every mole of methylene blue formed in this reaction contains 32 g (1 mole) of captured sulfur.
smiles,measurement,setting,value
"NCCc1c[nH]c2ccc(O)cc12 [serotonin, Serotonin]",activity of isolated CBS,[1],increase the activity
same,protection against hypothermic cell death / reduction in number of cells,SMAC cells [2],concentration-dependently prevented; also recorded: Protection of hypothermic cell death
same,apoptosis (caspase 3/7) in hypothermic SMAC cells,SMAC cells [3],completely and dose dependently attenuated
same,induction of CBS expression,"[4]; SMAC cells, 37° C., 15 min",4 fold
same,CBS expression in 37° C. SMAC cells,[4],upregulates CBS expression
same,H2S content,SMAC cells [5],1.4±0.2 μmoles per 10̂6 cells
same,increase of H2S content,SMAC cells [5]; vs untreated,8 fold
